Measured values as given in patent US20140030311A1, “MONOLITHIC INTRAVAGINAL RINGS COMPRISING PROGESTERONE AND METHODS OF MAKING AND USES THEREOF” (TEVA WOMEN'S HEALTH, INC., priority 2009, published 2014).

Key:
endometrium = experiment: Post-study mock cycle and donor egg IVF of the two ring non-responders on other progesterone; assay type: in vivo, human; settings: for outcome of post-study donor egg IVF: single subject; for biopsy result in post-study mock cycle: single subject without transformation on the ring
From the text: There was a fibroid found in surgery post-study, which could have affected blood supply to the endometrium. […] The subject is considering one more IVF attempt with a donor egg.

IVF cycles = settings: luteal phase support in IVF cycles; Soliman et al. 1994; cited from earlier work

SMILES	outcome of post-study donor egg IVF (endometrium)	biopsy result in post-study mock cycle (endometrium)	pregnancy rates versus placebo (IVF cycles)
CC(=O)[C@H]1CC[C@H]2[C@@H]3CCC4=CC(=O)CC[C@]4(C)[C@H]3CC[C@]12C [IM progesterone, pregn-4-ene-3,20-dione]	ongoing pregnancy with delivery	adequate transformation	–
CC(=O)[C@H]1CC[C@H]2[C@@H]3CCC4=CC(=O)CC[C@]4(C)[C@H]3CC[C@]12C [micronized progesterone, pregn-4-ene-3,20-dione]	negative βhCG	adequate transformation	–
CC(=O)[C@H]1CC[C@H]2[C@@H]3CCC4=CC(=O)CC[C@]4(C)[C@H]3CC[C@]12C [progesterone, pregn-4-ene-3,20-dione]	–	–	significantly higher pregnancy rates than placebo
